Source: US7524646B2 (priority 2001, dated 2009)

B1: K277Q: ValRS of E. coli with single substitution K277Q in the editing domain (protein, UniProt P07118 1-951, looked up, variant K277Q)
Valine--tRNA ligase: MEKTYNPQDIEQPLYEHWEKQGYFKPNGDESQESFCIMIPPPNVTGSLHMGHAFQQTIMDTMIRYQRMQGKNTLWQVGTDHAGIATQMVVERKIAAEEGKTRHDYGREAFIDKIWEWKAESGGTITRQMRRLGNSVDWERERFTMDEGLSNAVKEVFVRLYKEDLIYRGKRLVNWDPKLRTAISDLEVENRESKGSMWHIRYPLADGAKTADGKDYLVVATTRPETLLGDTGVAVNPEDPRYKDLIGKYVILPLVNRRIPIVGDEHADMEKGTGCVQITPAHDFNDYEVGKRHALPMINILTFDGDIRESAQVFDTKGNESDVYSSEIPAEFQKLERFAARKAVVAAVDALGLLEEIKPHDLTVPYGDRGGVVIEPMLTDQWYVRADVLAKPAVEAVENGDIQFVPKQYENMYFSWMRDIQDWCISRQLWWGHRIPAWYDEAGNVYVGRNEDEVRKENNLGADVVLRQDEDVLDTWFSSALWTFSTLGWPENTDALRQFHPTSVMVSGFDIIFFWIARMIMMTMHFIKDENGKPQVPFHTVYMTGLIRDDEGQKMSKSKGNVIDPLDMVDGISLPELLEKRTGNMMQPQLADKIRKRTEKQFPNGIEPHGTDALRFTLAALASTGRDINWDMKRLEGYRNFCNKLWNASRFVLMNTEGQDCGFNGGEMTLSLADRWILAEFNQTIKAYREALDSFRFDIAAGILYEFTWNQFCDWYLELTKPVMNGGTEAELRGTRHTLVTVLEGLLRLAHPIIPFITETIWQRVKVLCGITADTIMLQPFPQYDASQVDEAALADTEWLKQAIVAVRNIRAEMNIAPGKPLELLLRGCSADAERRVNENRGFLQTLARLESITVLPADDKGPVSVTKIIDGAELLIPMAGLINKEDELARLAKEVAKIEGEISRIENKLANEGFVARAPEAVIAKEREKLEGYAEAKAKLIEQQAVIAAL
B2: D230N: ValRS of E. coli with single substitution D230N in the editing domain (protein, UniProt P07118 1-951, looked up, variant D230N)
Valine--tRNA ligase: MEKTYNPQDIEQPLYEHWEKQGYFKPNGDESQESFCIMIPPPNVTGSLHMGHAFQQTIMDTMIRYQRMQGKNTLWQVGTDHAGIATQMVVERKIAAEEGKTRHDYGREAFIDKIWEWKAESGGTITRQMRRLGNSVDWERERFTMDEGLSNAVKEVFVRLYKEDLIYRGKRLVNWDPKLRTAISDLEVENRESKGSMWHIRYPLADGAKTADGKDYLVVATTRPETLLGNTGVAVNPEDPRYKDLIGKYVILPLVNRRIPIVGDEHADMEKGTGCVKITPAHDFNDYEVGKRHALPMINILTFDGDIRESAQVFDTKGNESDVYSSEIPAEFQKLERFAARKAVVAAVDALGLLEEIKPHDLTVPYGDRGGVVIEPMLTDQWYVRADVLAKPAVEAVENGDIQFVPKQYENMYFSWMRDIQDWCISRQLWWGHRIPAWYDEAGNVYVGRNEDEVRKENNLGADVVLRQDEDVLDTWFSSALWTFSTLGWPENTDALRQFHPTSVMVSGFDIIFFWIARMIMMTMHFIKDENGKPQVPFHTVYMTGLIRDDEGQKMSKSKGNVIDPLDMVDGISLPELLEKRTGNMMQPQLADKIRKRTEKQFPNGIEPHGTDALRFTLAALASTGRDINWDMKRLEGYRNFCNKLWNASRFVLMNTEGQDCGFNGGEMTLSLADRWILAEFNQTIKAYREALDSFRFDIAAGILYEFTWNQFCDWYLELTKPVMNGGTEAELRGTRHTLVTVLEGLLRLAHPIIPFITETIWQRVKVLCGITADTIMLQPFPQYDASQVDEAALADTEWLKQAIVAVRNIRAEMNIAPGKPLELLLRGCSADAERRVNENRGFLQTLARLESITVLPADDKGPVSVTKIIDGAELLIPMAGLINKEDELARLAKEVAKIEGEISRIENKLANEGFVARAPEAVIAKEREKLEGYAEAKAKLIEQQAVIAAL
B3: wild-type enzyme: wild-type valyl-tRNA synthetase (ValRS) of E. coli (protein, UniProt P07118 1-951, looked up)
Valine--tRNA ligase: MEKTYNPQDIEQPLYEHWEKQGYFKPNGDESQESFCIMIPPPNVTGSLHMGHAFQQTIMDTMIRYQRMQGKNTLWQVGTDHAGIATQMVVERKIAAEEGKTRHDYGREAFIDKIWEWKAESGGTITRQMRRLGNSVDWERERFTMDEGLSNAVKEVFVRLYKEDLIYRGKRLVNWDPKLRTAISDLEVENRESKGSMWHIRYPLADGAKTADGKDYLVVATTRPETLLGDTGVAVNPEDPRYKDLIGKYVILPLVNRRIPIVGDEHADMEKGTGCVKITPAHDFNDYEVGKRHALPMINILTFDGDIRESAQVFDTKGNESDVYSSEIPAEFQKLERFAARKAVVAAVDALGLLEEIKPHDLTVPYGDRGGVVIEPMLTDQWYVRADVLAKPAVEAVENGDIQFVPKQYENMYFSWMRDIQDWCISRQLWWGHRIPAWYDEAGNVYVGRNEDEVRKENNLGADVVLRQDEDVLDTWFSSALWTFSTLGWPENTDALRQFHPTSVMVSGFDIIFFWIARMIMMTMHFIKDENGKPQVPFHTVYMTGLIRDDEGQKMSKSKGNVIDPLDMVDGISLPELLEKRTGNMMQPQLADKIRKRTEKQFPNGIEPHGTDALRFTLAALASTGRDINWDMKRLEGYRNFCNKLWNASRFVLMNTEGQDCGFNGGEMTLSLADRWILAEFNQTIKAYREALDSFRFDIAAGILYEFTWNQFCDWYLELTKPVMNGGTEAELRGTRHTLVTVLEGLLRLAHPIIPFITETIWQRVKVLCGITADTIMLQPFPQYDASQVDEAALADTEWLKQAIVAVRNIRAEMNIAPGKPLELLLRGCSADAERRVNENRGFLQTLARLESITVLPADDKGPVSVTKIIDGAELLIPMAGLINKEDELARLAKEVAKIEGEISRIENKLANEGFVARAPEAVIAKEREKLEGYAEAKAKLIEQQAVIAAL

Key:
[1] = test system: strain PS2306 (wild type ileS gene, plasmid pVDC433); assay type: cell-based, E. coli; conditions: 0.1 ml of 25 mM amino acid in central well, 37 degrees, 24 hours
Procedure: (§1) Strains PS2306 and PS2449 are tested for their sensitivity to artificial amino acids which present a steric resemblance to isoleucine. The cells are cultivated in MS mineral medium, succinate (0.2%), arabinose (0.2%) for 24 h at 37 degrees centigrade and diluted at 1/250in MS mineral medium. 0.5 ml of this cell suspension are spread on a Petri dish containing 25 ml of MS medium supplemented with succinate (0.2%) and arabinose (0.2%). A well is then prepared in the middle of the dish and filled with 0.1 ml of an amino acid solution: • 1) 25 mM S-methyl cysteine • 2) 25 mM homocysteine • 3) 25 mM o-methyl-L-serine • 4) 25 mM Norleucine • 5) 25 mM Norvaline
(§2) The Petri dishes are then incubated at 37 degrees centigrade for 24 hours and the appearance of a zone of inhibition around the well is recorded. The diameters of the zones of attenuated growth are measured as follows: […]

[2] = test system: strain PS2449 (mutated gene ileS ala11, plasmid pTLH33); assay type: cell-based, E. coli; conditions: 0.1 ml of 25 mM amino acid in central well, 37 degrees, 24 hours
Procedure: as §1, §2

[^3H]Thr-tRNAval = Deacylation of mischarged Thr-tRNAVal by ValRS enzymes; assay type: biochemical, E. coli; conditions: 2 nM enzyme, room temperature
Procedure: FIG. 5B: Histogram representation of the inhibition zone diameters of DvalS::kanR strains harboring each of the ValRS editing mutants on plasmid in response to exogenous Abu. Effects range from mild to severe. Histogram representation of the percentage of mischarged Thr-tRNAVal remaining after incubation with 2 nM enzyme for 15 minutes at room temperature. Both show a distinct range in the severity of editing defects caused by these point mutations. Taken together this illustrates a correlation between the ability of the mutant enzyme to deacylate mischarged amino acids from tRNAVal in vitro and the degree of in vivo toxicity.
(§3) Misacylation of Thr onto tRNAval was performed in the same conditions except 5.86 μM [^3H]Thr was substituted forVal in the reaction. To test deacylation rates for these enzymes it was necessary to generate [^3H]Thr-tRNAval. […] Enzyme was incubated with 2.5 μM tRNAval and 45 uM [^3H]Thr, incubated at 37 C. for 45 minutes, extracted twice in phenol:chloroform, and ethanol precipitated. Pellet was dissolved in 100 μL sterile H2O and scintillation counting was used to determine the success of the reaction. Deacylation reactions, done in triplicate for each enzyme, were performed in 155 mM Tris-HCl (pH 7.5), 100 μg/ml BSA, 10 mM MgCl2. At room temperature 2 nM enzyme was combined with [^3H]Thr-tRNAval, at 3, 6, 9, 16, and 30 minutes aliquots (9 μL) of the reaction mixture were precipitated with tricholoracetic acid, and the amount of misaminoacylated [^3H]Thr-tRNAval remaining in the sample was determined by scintillation counting. A no enzyme control reaction was included to provide reference point.

tRNA^Val = assay: Misacylation of tRNAVal with Thr; assay type: biochemical, E. coli; conditions: pH 7.5, 37° C.
Procedure: FIG. 2B: A graph showing misaminoacylation of tRNA^Val with Thr by the T222P mutant enzyme at pH 7.5 and 37° C. The wild-type (WT) and mutant alleles were cloned under the control of a PBAD promoter (30). The enzymes were partially purified from a laboratory strain lacking the chromosomal copy of the valS gene (ΔvalS::kan+). The purification and aminoacylation procedures were adapted from Hendrickson et al. (31). (Main panel) Misaminoacylation of tRNA^Val with Thr by the two enzymes. (Inset) Aminoacylation of tRNA^Val with Val by the two enzymes.
Aminoaclyation Assay, Misacylation, and Deacylation: Aminoacylation assays were performed at 37 C. in a 100 uL volume containing buffer (20 mM HEPES, 0.1 mM EDTA disodium salt, 0.15M NH4Cl, 10 ug/mL BSA pH 7.5), […] MgCl2, 0.7 μM [^3H]Val, 20 μM cold Val, 2 μM tRNAval (Sigma) and 20 nM ValRS enzyme (adapted from Hendrickson et al. 2000). Aliquots (10 μL) of the reaction mixture were precipitated with tricholoracetic acid, and the level of aminoacylation of the tRNA was determined by scintillation counting.
as §3

Molecule | diameters of the zones of attenuated growth [1] [cm] | diameters of the zones of attenuated growth [2] [cm] | deacylation of Thr-tRNA^Val in vitro ([^3H]Thr-tRNAval) | misacylation of tRNA^Val with Thr (tRNA^Val)
CCC[C@H](N)C(=O)O [Norvaline] | 3.7 | 8.0 |  | 
N[C@@H](CCS)C(=O)O [Homocysteine] | 2.1 | 2.9 |  | 
CCCC[C@H](N)C(=O)O [Norleucin, Norleucine] | 2.9 | 3.4 |  | 
CSC[C@H](N)C(=O)O [S-methyl-L-cysteine] | 1.3 | 3.0 |  | 
COC[C@H](N)C(=O)O [O-methyl-L-serine] | 2.2 | 5.6 |  | 
B1 |  |  | most severe defects | high levels of mischarged Thr-tRNA^Val
B2 |  |  | slowed rate of deacylation | low levels of mischarging
B3 |  |  |  | no detectable mischarged tRNA^Val
